Columns and labels:
[1] = test system: Neutrophil elastase activity in U937 cells; experiment: Neutrophil elastase activity in U937 cytosolic lysate after incubation with test compound; assay type: cell-based; settings: Homo sapiens, U-937; U937 cells incubated 48 hours with compound; NE activity in lysate; read-out: Reduction of NE-activity in U937 cells IC50
Procedure: Determination of Neutrophil Elastase Activity in U937 Cytosolic Lysate Preparation after Incubation with Test Compound Materials: Optiplate 384F were purchased from PerkinElmer (Prod. No. #6007270). 24 well Nunclon cell culture plates (No. 142475) and 96 well plates (No. 267245) were from Nunc. Dimethylsulfoxid (DMSO) was from Sigma (Prod. No. D8418). Nonidet-P40 (NP40) was from USBiological (Prod. No. N3500) Substrate, specific for Neutrophil elastase, was from Bachem (MeOSuc-Ala-Ala-Pro-Val-AMC; Prod. No. I-1270). Human neutrophil elastase was from Calbiochem (Prod. No. 324681) Buffers: Tris-buffer (100 mM Tris; 1M NaCL; pH 7.5) Tris-buffer+HSA 0.1%; Human Serum Albumin from Calbiochem (Cat#. 126658) Serine-protease buffer (20 mM Tris; 100 mM NaCL; pH 7.5)+0.1% HSA Serine protease lysis buffer: 20 mM Tris-HCL; 100 mM NaCl pH 7.5; +0.2% Nonidet-P40; PBS: phosphate buffered saline, without Ca and Mg, from Gibco Cell Culture: U937 from ECACC (Cat. No. 85011440) cultured in suspension at 37° C. and 5% CO2. Cell density: 0.2-1 Mio. Cells/ml. Medium: RPMI1640 GlutaMAX (No. 61870) with 10% FCS from Gibco Cell Seeding and Treatment: Compounds in 100% DMSO were diluted in Medium (—FCS) with 10% DMSO and further diluted according to the experiment planned. 20 μl of the compound solution was transferred in the respective wells of the 24 well plate and diluted with 2 ml cell suspension/well containing 1′10^5 cells/ml (final concentration of DMSO=0.1%). Compound dilution factor=100 Compounds (up to 7 concentrations) were tested in triplicates with 3 wells for the DMSO 0.1% control, incubated for 48 hours without medium change at 37° C., 5% CO2 and 95% relative to humidity. Cell Harvesting and Cell Lysate:
Transfer the cell suspension in 2.2 ml Eppendorf cups. Separate cells from medium by centrifugation (400×g; 5 min; RT); discard the supernatant. Resuspend in 1 ml PBS; centrifugation (400×g; 5 min; RT); wash cells twice with PBS. Add 100 μl Serin lysis buffer (ice cold) to the cell pellet; resuspend the pellet and store on ice for 15 minutes. Remove debris by centrifugation at 15000×g for 10 min at 4° C. Transfer 80-100 μl lysate supernatant in 96 well plate and store immediately at −80° C.
Neutrophil Elastase Activity Assay:
Frozen lysates were thawn at 37° C. for 10 minutes and stored on ice. Protein content was determined with Bradford protein assay. Lysates were diluted to 0.2-0.5 mg/ml protein in serine protease buffer+HSA.
Standard: NE (100 μg/ml stocksolution in Tris-buffer; stored at −80° C.) was diluted in Tris-buffer+HSA to 750 ng/ml, and further serially diluted 1:2 for the standard curve.
Buffer, blank, standard and lysate samples were transferred into 384 well plate
The increase in fluorescence (Ex360 nm/Em 460 nm) is determined over 30 minutes with a Molecular Device Spectramax M5 Fluorescence Reader. Kinetic Reduction (Vmax units/sec); 4 vmax points. The amount of neutrophil elastase (ng/ml) is calculated using the standard curve and the Spectramax software. The result is interpolated to ng/mg lysate protein using excel formula functions. […] IC50 is calculated using Graphpad Prism; nonlinear fitting (log(inhibitor) vs. response—Variable slope). The IC50 value is interpolated as the concentration of test compound which leads to a neutrophil elastase activity reduction of 50% (relative to the DMSO-treated control).

[2] = molecular target: recombinant human Cathepsin K (Homo sapiens (Human), UniProt P43235); experiment: Inhibition of human Cathepsin K; assay type: biochemical; settings: substrate Z-Gly-Pro-Arg-AMC 12.5 μM, 60 min, room temperature
Sequence of recombinant human Cathepsin K (P43235 115-329): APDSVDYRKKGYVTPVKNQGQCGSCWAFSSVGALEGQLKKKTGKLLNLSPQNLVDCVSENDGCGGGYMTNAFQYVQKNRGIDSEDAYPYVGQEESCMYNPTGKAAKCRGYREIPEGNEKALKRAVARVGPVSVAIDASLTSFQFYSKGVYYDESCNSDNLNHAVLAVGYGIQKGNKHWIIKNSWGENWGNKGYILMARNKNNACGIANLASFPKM
Excerpt: Inhibition of Human Cathepsin K
Materials: Microtiterplates (Optiplate-384 F were purchased from PerkinElmer (Prod. No. 6007270). The substrate Z-Gly-Pro-Arg-AMC was from Biomol (Prod.-No. P-142). L-Cysteine (Prod. No. 168149) was from Sigma. Sodium actetate was from Merck (Prod.-No. 6268.0250), EDTA was from Fluka (Prod.-No. 03680). The inhibitor E-64 was purchased from Sigma (Prod.-No. E3132). The recombinant human Cathepsin K proenzyme was purchased from Biomol (Prod. No. SE-367). All other materials were of highest grade commercially available.
The following buffers were used: Activation buffer: 32.5 mM sodium acetate, adjusted to pH 3.5 with HCl; Assay buffer: 150 mM sodium acetate, 4 mM EDTA, 20 mM L-Cysteine, adjusted to pH 5.5 with HCl,
To activate the proenzyme, 5 μl procathepsin K were mixed with 1 ul activation buffer, and incubated at room temperature for 30 min.
5 μL test compound (final concentration 0.1 nM to 100 μM) in aqua bidest (containing 4% DMSO, final DMSO concentration 1%) were mixed with 10 uL of Cathepsin K in assay buffer (final concentration 2 ng/μL) and incubated for 10 min. Then 5 μL of substrate in assay buffer (final concentration 12.5 μM) were added. The plates were then incubated at room temperature for is 60 min. Then, the reaction was stopped by adding 10 μL of E64 in assay buffer (final concentration 1 μM). The fluorescence in the wells was determined using a Molecular Devices SpectraMax M5 Fluorescence Reader (Ex 360 nm, Em 460 nm).
Each assay microtiter plate contains wells with vehicle controls (1% DMSO in bidest) as reference for non-inhibited enzyme activity (100% Ctl; high values) and wells with inhibitor (E64 in bidest+1% DMSO, final concentration 1 μM) as controls for background fluorescence (0% Ctl; low values). The analysis of the data was performed by calculating the percentage of fluorescence in the presence of test compound in comparison to the fluorescence of the vehicle control after subtracting the background fluorescence: (RFU(sample)−RFU(background))*100/(RFU(control)−RFU(background))
Data from these calculations were used to generate IC50 values for inhibition of Cathepsin K, respectively.

| IC50 [1] [nM] | IC50 [2] [nM] | Structure (SMILES) |
| --- | --- | --- |
| 426 | 5300 | CS(=O)(=O)c1cccc(-c2ccc(C[C@@H](C#N)NC(=O)[C@H]3NC4CCC3CC4)cc2)c1 [Example 10] |
| 469 | 5300 | CS(=O)(=O)c1cc(-c2ccc(C[C@@H](C#N)NC(=O)[C@H]3NC4CCC3CC4)cc2)ccc1C#N [Example 8] |
| 50 | 6300 | CN1C(=O)Cc2ccc(-c3ccc(C[C@@H](C#N)NC(=O)[C@H]4N[C@H]5CC[C@@H]4CC5)cc3)cc21 [Example 4] |
| 328 | 11000 | N#C[C@H](Cc1ccc(-c2ccc3c(c2)CNC3=O)cc1)NC(=O)[C@H]1NC2CCC1CC2 [Example 11] |
| 281 | 4200 | N#C[C@H](Cc1ccc(-c2ccc3c(c2)NC(=O)C3)cc1)NC(=O)[C@H]1NC2CCC1CC2 [Example 2, (2S)—N-[(1S)-cyano-2-[4-(2-oxoindolin-6-yl)phenyl]ethyl]-3-azabicyclo[2.2.2]octane-2-carboxamide] |
| 450 | 9900 | CS(=O)(=O)Nc1cccc(-c2ccc(C[C@@H](C#N)NC(=O)[C@H]3NC4CCC3CC4)cc2)c1 [Example 12] |
| 561 | 5700 | N#Cc1ccc(-c2ccc(C[C@@H](C#N)NC(=O)[C@H]3N[C@H]4CC[C@@H]3CC4)cc2)cc1F [Example 7, (2S)—N-[(1S)-1-cyano-2-[4-(4-cyano-3-fluoro-phenyl)phenyl]ethyl]-3-azabicyclo[2.2.2]octane-2-carboxamide] |

From patent US8877775B2, “Substituted 2-aza-bicyclo[2.2.2]octane-3-carboxylic acid (benzyl-cyano-methyl)-amides inhibitors of cathepsin C” (Boehringer Ingelheim International GmbH, priority 2013, dated 2014)
